Test results from patent US11980688B2, “Nanoliposome-microbubble conjugate including drug for hair loss treatment encapsulated in nanoliposome and composition for alleviating or treating hair loss containing same” (priority 2018, dated 2024).

What was measured:
C57BL/6J mice = assay: Testosterone-induced hair loss mouse model, hair growth; format: in vivo; conditions: FIG. 5
Description: The hair on the back of each of 6-week-old mice (C57BL/6J) was epilated using an animal epilator (Philips) and hair removal cream (Veet), after which testosterone was dissolved in a mixed solution of propylene glycol and ethanol (3:7 (v:v)) and applied every day at a concentration of 30 μg/ml, and thus an environment similar to that of human hair loss was made.
In the present experiment, the individual test groups were as follows (testosterone was applied to the skin in all cases). • (1) A control group (non-treated group); • (2) A group treated with testosterone; • (3) A group treated with testosterone and then subjected to skin application with the nanoliposome-microbubble conjugate of Example 1; • (4) A group treated with testosterone and then subjected to oral administration with a commercially available finasteride solution; • (5) A group treated with testosterone and then subjected to skin application with a commercially available finasteride solution; • (6) A group treated with testosterone and then subjected to skin application with the nanoliposome of Comparative Example 1; and • (7) A group subjected to skin application with the nanoliposome-microbubble conjugate of Example 1.
A nanoliposome-microbubble conjugate (HTP) configured such that the nanoliposome and the microbubble were conjugated and dispersed at a ratio of 2:1 was used. 200 μl thereof, having a total finasteride content of 1 μg, was applied on the entire epilated back of the mice using a plastic spatula, and after 3 min, was exposed to ultrasound using a medical sonicator. Here, the nanoliposome-microbubble conjugate was applied five times at an interval of one day. Under the same conditions, the total finasteride content was matched in the group treated with the commercially available finasteride solution in lieu of the solution of Example 1 or Comparative Example 1. […]

DPCs = assay: Cell viability, WST-1 assay, testosterone-induced apoptosis; format: cell-based; conditions: 200 μM testosterone, every 24 hr for 4 days, DPCs compared to 3T3 fibroblasts, FIG. 4 left
Description: Cell viability was evaluated through WST-1 assay (EZ-cytox Cell Viability Assay Kit). DPCs and 3T3 fibroblasts were cultured at a density of 1×10^4/well in a 96-well plate for 24 hr. Here, the culture medium was replaced with a new medium containing 200 μM testosterone, and after 24 hr, a WST-1 reagent was added thereto. The WST-1 reagent was added in an amount of 10% of the culture broth, and after 1 hr, absorbance was measured at 460 nm and thus cell survival and proliferation were compared with a control group (non-treated group). Cell survival was measured at an interval of 24 hr for 4 days after testosterone treatment.
After treatment with the nanoliposome-microbubble conjugate (HTP) of the present invention before treatment with testosterone in the same manner, the culture medium was replaced with a new medium containing 200 μM testosterone, the subsequent procedures were conducted as above, and the state of cells was observed. A comparative group was treated with the nanoliposome-microbubble conjugate (HTP) alone.

Structure (SMILES): CC(C)(C)NC(=O)[C@H]1CC[C@H]2[C@@H]3CC[C@H]4NC(=O)C=C[C@]4(C)[C@H]3CC[C@]12C [commercially available finasteride drug, finasteride]
- hair growth after testosterone, skin application (C57BL/6J mice; testosterone 30 μg/ml daily, total finasteride 1 μg, applied five times at one-day interval): hair started growing on the seventh week
- hair growth after testosterone, oral administration (C57BL/6J mice; testosterone daily, oral dose 10 times the application dose, five times): hair started growing on the seventh week

Structure (SMILES): C[C@]12CC[C@H]3[C@@H](CCC4=CC(=O)CC[C@@]43C)[C@@H]1CC[C@@H]2O [testosterone]
- hair growth, testosterone alone (C57BL/6J mice; testosterone 30 μg/ml applied every day to epilated back): grew hardly any hair
- extent of apoptosis over time (DPCs): greatly increased in DPCs compared to 3T3 cells
